Experiments:
Dipeptidyl peptidase 4 = Dipeptidyl peptidase 4 (Homo sapiens, UniProt P27487); assay: Inhibition of DPP4 by continuous fluorimetric assay
[1] = Metabolic stability in rat liver microsomes assessed as turnover after 60 mins; assay type: ADME, Microsome; settings: read-out: Stability

Dipeptidyl peptidase 4, sequence (P27487 whole entry): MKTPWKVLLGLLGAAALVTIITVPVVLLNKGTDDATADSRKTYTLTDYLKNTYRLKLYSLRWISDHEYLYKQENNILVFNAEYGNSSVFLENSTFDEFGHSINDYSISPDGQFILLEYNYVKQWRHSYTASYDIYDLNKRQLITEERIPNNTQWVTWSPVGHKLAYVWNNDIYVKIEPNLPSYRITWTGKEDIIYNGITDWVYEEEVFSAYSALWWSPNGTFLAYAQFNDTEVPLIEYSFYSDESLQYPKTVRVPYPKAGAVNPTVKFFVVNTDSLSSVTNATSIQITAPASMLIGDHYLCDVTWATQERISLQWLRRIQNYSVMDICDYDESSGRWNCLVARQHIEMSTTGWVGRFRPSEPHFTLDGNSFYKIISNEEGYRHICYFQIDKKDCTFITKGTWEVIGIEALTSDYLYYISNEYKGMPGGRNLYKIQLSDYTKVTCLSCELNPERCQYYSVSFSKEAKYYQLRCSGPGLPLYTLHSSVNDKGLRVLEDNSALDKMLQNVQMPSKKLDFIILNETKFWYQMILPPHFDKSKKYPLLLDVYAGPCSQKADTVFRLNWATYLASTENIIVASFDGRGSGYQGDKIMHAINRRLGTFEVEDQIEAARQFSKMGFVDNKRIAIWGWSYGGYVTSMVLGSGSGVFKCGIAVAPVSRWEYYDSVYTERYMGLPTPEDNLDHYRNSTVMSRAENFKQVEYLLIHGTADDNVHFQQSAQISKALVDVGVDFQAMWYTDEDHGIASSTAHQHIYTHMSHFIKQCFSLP

Row | IC50 (Dipeptidyl peptidase 4) [nM] | metabolised at 1 h [1] [%] | SMILES
1 | 66 | – | N[C@@H](CC(=O)N1CCC[C@H]1CNC(=O)c1ccncc1)Cc1ccccc1F
2 | 92 | – | N[C@@H](CC(=O)N1CCC[C@H]1CNC(=O)c1cccc(F)c1)Cc1ccccc1F
3 | 27 | – | N[C@@H](CC(=O)N1CCC[C@H]1CNS(=O)(=O)c1ccc(F)cc1)Cc1ccccc1F
4 | – | 76 | N[C@@H](CC(=O)N1CCC[C@H]1CNC(=O)c1ccccc1)Cc1ccccc1F
5 | 94 | – | N[C@@H](CC(=O)N1CCC[C@H]1CNS(=O)(=O)c1cccc(F)c1)Cc1ccccc1F
6 | 77 | – | CS(=O)(=O)c1ccc(C(=O)NC[C@@H]2CCCN2C(=O)C[C@H](N)Cc2ccccc2F)cc1
7 | 27 | – | N[C@@H](CC(=O)N1CCC[C@H]1CNC(=O)c1ccccc1)Cc1cccc(Cl)c1
8 | 87 | – | N[C@@H](CC(=O)N1CCC[C@H]1CNC(=O)c1cccnc1)Cc1ccccc1F
9 | 49 | – | N[C@@H](CC(=O)N1CCC[C@H]1CNC(=O)c1ccccc1F)Cc1ccccc1F
10 | 24 | – | N[C@@H](CC(=O)N1CCC[C@H]1CNS(=O)(=O)c1cc(Cl)ccc1Cl)Cc1ccccc1F
11 | 20 | – | N[C@@H](CC(=O)N1CCC[C@H]1CNS(=O)(=O)c1ccc(Cl)cc1)Cc1ccccc1F
12 | 92 | – | N[C@@H](CC(=O)N1CCC[C@H]1CNC(=O)c1ccc(F)cc1)Cc1ccccc1F
13 | 47 | – | N[C@@H](CC(=O)N1CCC[C@H]1CNC(=O)c1ccccn1)Cc1ccccc1F
14 | 27 | – | CS(=O)(=O)c1ccccc1C(=O)NC[C@@H]1CCCN1C(=O)C[C@H](N)Cc1ccccc1F
